Entries after “also recorded” stand apart in the source; their conditions may differ.
Key:
[1] = tested on: monocytes isolated from mouse bone marrow; assay: MTT assay for cytotoxicity evaluation (cell viability); assay type: cell-based; settings: 3-10 μM; 4 days
Method: 1×10^4 monocytes isolated from mouse bone marrow per well were put into a 96-well plate, and in order to assess cell viability, the cells were cultured for 4 days while being treated with PSTP-3,5-Me at different concentrations (3-10 μM). A cell viability assay reagent (DoGen, EZ-3000) was used for treatment with 1/10 of the volume of the medium, and the cells were cultured at 37° C. for 30 minutes and confirmed at […]. […] In other words, it is understood that no cytotoxicity appeared.

mouse bone marrow cells = assay: F-actin staining, actin-ring formation; assay type: cell-based; settings: 6 uM, 4 to 5 days
Method: In order to determine the activity of differentiated osteoclasts, an ability to differentiate the cells into multinuclear cells was firstly confirmed through F-actin staining. Specifically, 5×10^4 mouse hone marrow cells per well were put into a 24-well plate in which glass coated with L-Lysine was placed (Corning, 354085). Simultaneously, the cells were treated with PSTP-3,5-Me 6 uM and cultured for 4 to 5 days. The differentiated cells were fixed with 4% formaldehyde for 10 minutes and washed with PBS. For the antigen-antibody reaction, a reaction was conducted in 0.1% Triton-PBS for 20 minutes, followed by reacting the same in 1% BSA for 1 hour. Thereafter, the F-actin antibody (Thermo Fisher Scientific, A12379) was reacted for 1 hour and than washed. Cell nuclei were stained through 4′,6-diamidino-2-phenylindole (DAPI, Dilactate, Thermo Fisher Scientific, D3571) staining, and then photographed under a microscope. As a result, it was confirmed by comparing shies of F-actin that PSTP-3,5-Me inhibited differentiation into multinuclear cells.

ovariectomized mouse = assay: Ovariectomized (OVX) mouse osteoporosis model, tibia microcomputer tomography; assay type: in vivo
Method: In order to confirm in vivo efficacy of the PMSA compound, an ovariectomized animal model (OVX, ovariectomized mouse) with osteoporosis due to estrogen deficiency after ovariectomy in 8-week-old female mouse was prepared. #25 (PMSA-3-Ac, 25 mg/kg) or #25-D12 (PMSA-2-OMe-5-Cl, 20 mg/kg) were injected intraperitoneally once every two days to the ovariectomized mouse model. After 4 weeks, the tibia of the mouse was analyzed for bone density by microcomputer tomography.

[2] = 20 mg/kg intraperitoneally once every two days, 4 weeks, tibia, compared to control (OVX)

| SMILES | cell viability [1] | differentiation into multinuclear cells (F-actin) (mouse bone marrow cells) | actin-ring formation (mouse bone marrow cells; compared to control) | bone density and bone volume (ovariectomized mouse; 20 mg/kg intraperitoneally once every two days, 4 weeks, compared to control (OVX)) | bone volume (BV) increase (ovariectomized mouse; [2]) [%] | cortical volume (Ct.V) increase (ovariectomized mouse; [2]) [%] | total bone volume (TV) increase (ovariectomized mouse; [2]) [%] | trabecular bone mineral density (Th. BMD) increase (ovariectomized mouse; [2]) [%] | trabecular volume (Th.V) increase (ovariectomized mouse; [2]) [times] | bone loss (ovariectomized mouse; OVX mouse model) |
| --- | --- | --- | --- | --- | --- | --- | --- | --- | --- | --- |
| Cc1cc(C)cc(N([C@@H](C)C(=O)Nc2ccccc2Sc2ccccc2)S(C)(=O)=O)c1 [#25-D5, N^2-(3,5-dimethylphenyl)-N^2-(methylsulfonyl)-N-[2-(phenylthio)phenyl]alanineamide] | did not affect cell viability | inhibited | small-sized actin-ring structure |  |  |  |  |  |  |  |
| COc1ccc(Cl)cc1N(CC(=O)Nc1ccccc1Sc1ccccc1)S(C)(=O)=O [#25-D12, 2-(N-(5-chloro-2-methoxyphenyl)methylsulfonamido)-N-(2-(phenylthio)phenyl)acetamide] |  |  |  | higher | 6.9 | 5.4 | 5.4 | 42.3 | 2.7 | preventing bone loss in the trabecular bone portion; also recorded: effectively reduced bone loss |
